Experimental data published in patent publication US5248667A, “Method of treating psoriasis using synthetic peptide compositions” (The United States of America as represented by the …, priority 1991, dated 1993).

Test system: normal volunteers
Test: CNS or immunologic toxicity in volunteers
Format: in vivo, human
Settings: all patients / normal volunteers
Protocol: 1. 6 male research subjects with histories of substance abuse, childhood dyslexia, and depression, have received Peptide T intravenously in doses ranging from 0.033 mg/kg to 0.133 mg/kg per day for seven days.
2. a WM HIV seronegative normal volunteer received Peptide T both intranasally and sublingually at 12.5 mg BID for one week coincidentally reported improvement in multiple red, scaling pruritic areas located in scalp and lower neck areas. This individual has a history of mild psoriasis which, by personal choice, has been treated with only topical treatments including hydrocortisone, coal tar derivatives, and calamine lotion.
3. No evidence of either CNS or immunologic toxicity associated with drug administration was aobserved in any of these patients in any of these normal volunteers.

C[C@@H](N)C(=O)N[C@@H](CO)C(=O)N[C@H](C(=O)N[C@H](C(=O)N[C@H](C(=O)N[C@@H](CC(N)=O)C(=O)N[C@@H](Cc1ccc(O)cc1)C(=O)N[C@H](C(N)=O)[C@@H](C)O)[C@@H](C)O)[C@@H](C)O)[C@@H](C)O [Peptide T, D-Ala-Ser-Thr-Thr-Thr-Asn-Tyr-Thr-amide]
CNS or immunologic toxicity associated with drug administration: No evidence
